Patent publication US20220380347A1, “INHIBITORS OF CYSTEINE PROTEASES AND METHODS OF USE THEREOF” (Pardes Biosciences, Inc., priority 2020, published 2022)
Like-named read-outs stand apart in the source and are kept apart here.

Key:
229E Mpro = 229E Mpro (Human coronavirus 229E, UniProt P0C6X1); test: 229E Mpro enzymatic assay (standard methods, SARS-CoV2 Mpro assay given as exemplary); assay type: biochemical, human coronavirus (HCov) 229E
Summary of the method: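 Run by standard methods, with the SARS-CoV-2 Mpro protocol given as the model: E. coli-expressed C-His6 protease at 25 nM and substrate at 25 μM (Km 13.5 μM). Buffer pH 7.3 with 5 mM TCEP and 0.1% BSA; % inhibition versus controls fitted to variable-slope log(inhibitor)-response for IC50.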

[1] = target: COVID-19 (nCoV-2019, SARS-CoV2) Mpro (Severe acute respiratory syndrome coronavirus 2, UniProt P0DTD1); test: COVID-19 (nCoV-2019, SARS-CoV2) Mpro enzymatic assay; assay type: biochemical; details: 25 nM Mpro, 25 μM substrate; read-out: COVID-19 Mpro IC50
HCoV 229E = HCoV 229E cytopathic effect (CPE) assay, CellTiter Glo; assay type: cell-based, human coronavirus (HCov) 229E; details: protection of virus-induced CPE
Protocol: Example 238: Evaluation of antiviral activity of compounds against human coronavirus (HCov) 229E and OC43 in the cytopathic effect (CPE) assays
Compounds were assayed using standard methods against multiple coronaviral strains, including HCoV 229E and OC43 strains. The antiviral activity of compounds was calculated based on the protection of the virus-induced CPE at each concentration normalized by the virus control.
Cytopathic effect (CPE) was measured by CellTiter Glo following the manufacturer's manual. The antiviral activity of compounds was calculated based on the protection of the virus-induced CPE at each concentration normalized by the virus control.
Cell viability was measured with CellTiter Glo.

HCov OC43 = test: HCoV OC43 cytopathic effect (CPE) assay, CellTiter Glo; assay type: cell-based, human coronavirus (HCov) OC43
[2] = Betacoronavirus 1, OC43, read-out: OC43 IC50 (uM) MEDIAN, median
[3] = read-out: OC43 IC50 (uM) MEDIAN, median

Chain of 229E Mpro (P0C6X1 2966-3267): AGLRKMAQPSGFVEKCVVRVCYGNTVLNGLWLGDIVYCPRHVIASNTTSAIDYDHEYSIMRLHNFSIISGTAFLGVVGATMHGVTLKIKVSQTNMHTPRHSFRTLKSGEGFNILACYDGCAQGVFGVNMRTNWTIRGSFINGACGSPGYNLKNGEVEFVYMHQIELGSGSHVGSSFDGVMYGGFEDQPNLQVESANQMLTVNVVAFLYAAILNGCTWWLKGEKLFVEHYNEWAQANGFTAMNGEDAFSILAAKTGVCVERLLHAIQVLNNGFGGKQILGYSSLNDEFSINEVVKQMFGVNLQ

CC(C)(C)c1ccc(N(C(=O)[C@H]2C[C@@H](O)CN2C#N)C(C(=O)NC2CCOCC2)c2cccnc2)cc1 (single isomer, unassigned) [619 Isomer 1]
EC50 (229E Mpro; 229E Mpro EC50): < 2000 nM | IC50 [1]: < 2000 nM | EC50 (HCoV 229E; unidentified human coronavirus): 2000 to 10000 nM | IC50 (HCov OC43; [2]): < 2 µM

CC(C)(C)c1ccc(N(C(=O)[C@H]2C[C@@H](O)CN2C#N)C(C(=O)NC2CCOCC2)c2cccnc2)cc1 (single isomer, unassigned) [619 Isomer 2]
EC50 (229E Mpro; read-out: 229E Mpro EC50): < 2000 nM | IC50 [1]: 2000 to 10000 nM | EC50 (HCoV 229E): < 2000 nM | IC50 (HCov OC43; [3]): 2 to 10 µM

COCCNC(=O)C(c1cccnc1)N(C(=O)[C@H]1C[C@@H](O)CN1C#N)c1ccc(C(C)(C)C)cc1 (single isomer, unassigned) [627 Isomer 1]
EC50 (229E Mpro; 229E Mpro EC50): < 2000 nM | IC50 [1]: < 2000 nM | EC50 (HCoV 229E; unidentified human coronavirus): 2000 to 10000 nM | IC50 (HCov OC43; [3]): < 2 µM

COCCNC(=O)C(c1cccnc1)N(C(=O)[C@H]1C[C@@H](O)CN1C#N)c1ccc(C(C)(C)C)cc1 (single isomer, unassigned) [627 Isomer 2]
EC50 (229E Mpro; read-out: 229E Mpro EC50): < 2000 nM | IC50 [1]: 2000 to 10000 nM | EC50 (HCoV 229E): 2000 to 10000 nM | IC50 (HCov OC43; [3]): 10 to 30 µM

COCCCNC(=O)C(c1cccnc1)N(C(=O)[C@H]1C[C@@H](O)CN1C#N)c1ccc(C(C)(C)C)cc1 (single isomer, unassigned) [647 Isomer 2]
EC50 (229E Mpro; read-out: 229E Mpro EC50): < 2000 nM | IC50 [1]: < 2000 nM | EC50 (HCoV 229E; unidentified human coronavirus): 2000 to 10000 nM | IC50 (HCov OC43; [3]): 2 to 10 µM

Cn1cnnc1C(C(=O)NC1CCCCC1)N(C(=O)[C@H]1C[C@@H](O)CN1C#N)c1ccc(C(C)(C)C)cc1 (single isomer, unassigned) [659 Isomer 1]
EC50 (229E Mpro; 229E Mpro EC50): < 2000 nM | IC50 [1]: 2000 to 10000 nM | EC50 (HCoV 229E; unidentified human coronavirus): < 2000 nM | IC50 (HCov OC43; [3]): 10 to 30 µM

Cn1cnnc1C(C(=O)NC1CCCCC1)N(C(=O)[C@H]1C[C@@H](O)CN1C#N)c1ccc(C(C)(C)C)cc1 (single isomer, unassigned) [659 Isomer 2]
EC50 (229E Mpro; read-out: 229E Mpro EC50): < 2000 nM | IC50 [1]: 2000 to 10000 nM | EC50 (HCoV 229E): 2000 to 10000 nM | IC50 (HCov OC43; [3]): 2 to 10 µM

N#CN1C[C@H](O)C[C@@H]1C(=O)N(c1ccc(C2CC2)cc1)C(C(=O)NC1CCCCC1)c1cccnc1 (single isomer, unassigned) [723 Isomer 1]
EC50 (229E Mpro; 229E Mpro EC50): < 2000 nM | IC50 [1]: < 2000 nM | EC50 (HCoV 229E; unidentified human coronavirus): < 2000 nM | IC50 (HCov OC43; [2]): < 2 µM

N#CN1C[C@H](O)C[C@@H]1C(=O)N(c1ccc(C2CC2)cc1)C(C(=O)NC1CCCCC1)c1cccnc1 (single isomer, unassigned) [723 Isomer 2]
EC50 (229E Mpro; 229E Mpro EC50): 2000 to 10000 nM | IC50 [1]: 10000 to 30000 nM | EC50 (HCoV 229E): 2000 to 10000 nM | IC50 (HCov OC43; [3]): 2 to 10 µM

CC(C)(C)c1ccc(N(C(=O)[C@H]2CC(=O)CN2C#N)C(C(=O)NC2CCCCC2)c2cccnc2)cc1 (single isomer, unassigned) [Compound 278 Isomer 2]
EC50 (229E Mpro; read-out: 229E Mpro EC50): < 2000 nM | IC50 [1]: 2000 to 10000 nM | EC50 (HCoV 229E; unidentified human coronavirus): 2000 to 10000 nM | IC50 (HCov OC43; [3]): 10 to 30 µM

CC1(O)C[C@H](C(=O)N(c2ccc(C(C)(C)C)cc2)C(C(=O)NC2CCCCC2)c2cccnc2)N(C#N)C1 (single isomer, unassigned) [Compound 284 Isomer 2]
EC50 (229E Mpro; 229E Mpro EC50): < 2000 nM | IC50 [1]: < 2000 nM | EC50 (HCoV 229E; unidentified human coronavirus): < 2000 nM | IC50 (HCov OC43; read-out: OC43 IC50 (uM) MEDIAN, median, listed as 284 Isomer 2): < 2 µM

CO[C@@H]1C[C@H](C(=O)N(c2ccc(C(C)(C)C)cc2)C(C(=O)NC2CCCCC2)c2cccnc2)N(C#N)C1 (single isomer, unassigned) [Compound 292 Isomer 2]
EC50 (229E Mpro; read-out: 229E Mpro EC50): < 2000 nM | IC50 [1]: < 2000 nM | EC50 (HCoV 229E; unidentified human coronavirus): < 2000 nM | IC50 (HCov OC43; [3]): < 2 µM

CO[C@H]1C[C@H](C(=O)N(c2ccc(C(C)(C)C)cc2)C(C(=O)NC2CCCCC2)c2cccnc2)N(C#N)C1 (single isomer, unassigned) [Compound 293 Isomer 1]
EC50 (229E Mpro; 229E Mpro EC50): < 2000 nM | IC50 [1]: < 2000 nM | EC50 (HCoV 229E; unidentified human coronavirus): < 2000 nM | IC50 (HCov OC43; read-out: OC43 IC50 (uM) MEDIAN, median, listed as 293 Isomer 1): < 2 µM

CC(C)(C)O[C@@H]1C[C@H](C(=O)N(c2ccc(C(C)(C)C)cc2)C(C(=O)NC2CCCCC2)c2cccnc2)N(C#N)C1 (single isomer, unassigned) [Compound 299 Isomer 2]
EC50 (229E Mpro; 229E Mpro EC50): < 2000 nM | IC50 [1]: < 2000 nM | EC50 (HCoV 229E; unidentified human coronavirus): < 2000 nM | IC50 (HCov OC43; read-out: OC43 IC50 (uM) MEDIAN, median, listed as 299 Isomer 2): 2 to 10 µM

CC(C)(C)c1ccc(N(C(=O)[C@H]2C[C@H](Oc3ccccc3)CN2C#N)C(C(=O)NC2CCCCC2)c2cccnc2)cc1 (single isomer, unassigned) [Compound 308 Isomer 2]
EC50 (229E Mpro; 229E Mpro EC50): < 2000 nM | IC50 [1]: < 2000 nM | EC50 (HCoV 229E; unidentified human coronavirus): < 2000 nM | IC50 (HCov OC43; [3]): > 30 µM

CC(C)(C)c1ccc(N(C(=O)[C@H]2CCCN2C#N)C(C(=O)NCC2COC2)c2cccnc2)cc1 (single isomer, unassigned) [Compound 419 Isomer 1]
EC50 (229E Mpro; 229E Mpro EC50): < 2000 nM | IC50 [1]: < 2000 nM | EC50 (HCoV 229E; unidentified human coronavirus): 2000 to 10000 nM | IC50 (HCov OC43; [2]): 2 to 10 µM

COC(C)(C)CNC(=O)C(c1cccnc1)N(C(=O)[C@H]1CCCN1C#N)c1ccc(C(C)(C)C)cc1 (single isomer, unassigned) [Compound 427 Isomer 2]
EC50 (229E Mpro; 229E Mpro EC50): < 2000 nM | IC50 [1]: < 2000 nM | EC50 (HCoV 229E; unidentified human coronavirus): < 2000 nM | IC50 (HCov OC43; read-out: OC43 IC50 (uM) MEDIAN, median, listed as 427 Isomer 2): 2 to 10 µM

CN(C)CCNC(=O)C(c1cccnc1)N(C(=O)[C@H]1CCCN1C#N)c1ccc(C(C)(C)C)cc1 (single isomer, unassigned) [Compound 435 Isomer 1]
EC50 (229E Mpro; 229E Mpro EC50): < 2000 nM | IC50 [1]: 2000 to 10000 nM | EC50 (HCoV 229E; unidentified human coronavirus): 2000 to 10000 nM | IC50 (HCov OC43; read-out: OC43 IC50 (uM) MEDIAN, median, listed as 435 Isomer 1): 2 to 10 µM

Cc1c[nH]c2cc(N(C(=O)[C@H]3C[C@@H](O)CN3C#N)C(C(=O)NC3CCC(F)(F)CC3)c3cncc(F)c3)ccc12 (single isomer, unassigned) [Compound 747b Isomer 1]
EC50 (229E Mpro; 229E Mpro EC50): < 2000 nM | IC50 [1]: < 2000 nM | EC50 (HCoV 229E; unidentified human coronavirus): 2000 to 10000 nM | IC50 (HCov OC43; [2]): < 2 µM

N#CN1C[C@H](O)C[C@@H]1C(=O)N(c1ccc2c(c1)NCCC2)C(C(=O)NC1CCCCC1)c1cccnc1 (single isomer, unassigned) [Compound 755 Isomer 1]
EC50 (229E Mpro; 229E Mpro EC50): < 2000 nM | IC50 [1]: < 2000 nM | EC50 (HCoV 229E; unidentified human coronavirus): < 2000 nM | IC50 (HCov OC43; [2]): < 2 µM

N#CN1C[C@H](O)C[C@@H]1C(=O)N(c1ccc2c(c1)NCCC2)C(C(=O)NC1CCCCC1)c1cccnc1 (single isomer, unassigned) [Compound 755 Isomer 2]
EC50 (229E Mpro; 229E Mpro EC50): 2000 to 10000 nM | IC50 [1]: 10000 to 30000 nM | EC50 (HCoV 229E): < 2000 nM | IC50 (HCov OC43; [3]): 2 to 10 µM

N#CN1C[C@H](O)C[C@@H]1C(=O)N(c1ccc(C2CC2)cc1F)C(C(=O)NC1CCCCC1)c1cccnc1 (single isomer, unassigned) [Compound 763 Isomer 2]
EC50 (229E Mpro; 229E Mpro EC50): 2000 to 10000 nM | IC50 [1]: 10000 to 30000 nM | EC50 (HCoV 229E; unidentified human coronavirus): < 2000 nM | IC50 (HCov OC43; [3]): 2 to 10 µM

N#CN1C[C@H](O)C[C@@H]1C(=O)N(c1ccc(C2CC2)c(F)c1)C(C(=O)NC1CCCCC1)c1cccnc1 (single isomer, unassigned) [Compound 767 Isomer 1]
EC50 (229E Mpro; 229E Mpro EC50): < 2000 nM | IC50 [1]: < 2000 nM | EC50 (HCoV 229E; unidentified human coronavirus): 2000 to 10000 nM | IC50 (HCov OC43; [2]): < 2 µM

N#CN1C[C@H](O)C[C@@H]1C(=O)N(c1ccc(C(F)(C(F)(F)F)C(F)(F)F)cc1)C(C(=O)NC1CCCCC1)c1cccnc1 (single isomer, unassigned) [Compound 779 Isomer 1]
EC50 (229E Mpro; 229E Mpro EC50): < 2000 nM | IC50 [1]: < 2000 nM | EC50 (HCoV 229E; unidentified human coronavirus): 2000 to 10000 nM | IC50 (HCov OC43; [2]): < 2 µM

N#CN1C[C@H](O)C[C@@H]1C(=O)N(c1ccc(S(F)(F)(F)(F)F)cc1)C(C(=O)NC1CCCCC1)c1cccnc1 (single isomer, unassigned) [Compound 791 Isomer 2]
EC50 (229E Mpro; read-out: 229E Mpro EC50): < 2000 nM | IC50 [1]: 2000 to 10000 nM | EC50 (HCoV 229E; unidentified human coronavirus): < 2000 nM | IC50 (HCov OC43; [3]): < 2 µM
